“Also recorded” adds a separate entry of the source.
Molecular target: T1, Sema3A (Mus musculus, UniProt O08665)
T1 construct: expressed in transfected cells; host or cells: COS7
T1 sequence (O08665 21-772): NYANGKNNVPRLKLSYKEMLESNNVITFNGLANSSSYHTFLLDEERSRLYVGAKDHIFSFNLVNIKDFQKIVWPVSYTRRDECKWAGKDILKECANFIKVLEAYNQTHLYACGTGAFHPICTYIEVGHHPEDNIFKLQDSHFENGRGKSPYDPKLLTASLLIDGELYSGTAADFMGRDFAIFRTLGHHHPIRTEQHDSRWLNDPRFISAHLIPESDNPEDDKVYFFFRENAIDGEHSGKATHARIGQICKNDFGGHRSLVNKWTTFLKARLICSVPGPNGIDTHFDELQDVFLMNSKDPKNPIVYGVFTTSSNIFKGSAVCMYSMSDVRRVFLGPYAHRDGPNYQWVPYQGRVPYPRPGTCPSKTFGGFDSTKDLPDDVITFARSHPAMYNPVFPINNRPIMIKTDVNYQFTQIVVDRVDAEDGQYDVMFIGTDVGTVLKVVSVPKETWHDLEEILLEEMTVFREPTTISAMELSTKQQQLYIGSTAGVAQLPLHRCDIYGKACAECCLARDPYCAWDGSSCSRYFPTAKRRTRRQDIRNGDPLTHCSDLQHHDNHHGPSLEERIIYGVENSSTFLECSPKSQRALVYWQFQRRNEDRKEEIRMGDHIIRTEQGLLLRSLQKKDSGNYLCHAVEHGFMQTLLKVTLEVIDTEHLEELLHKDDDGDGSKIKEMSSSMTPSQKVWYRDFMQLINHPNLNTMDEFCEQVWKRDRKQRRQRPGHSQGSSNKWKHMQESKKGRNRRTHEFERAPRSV
Assay: Inhibition of collapse activity by contact of Sema3A and the inhibitor (Pre-Mix)
Type: cell-based
Conditions: final concentration 0.05 μg/ml
Description: For example, the inhibitory activity of SPF-3059-1 for the binding of Sema3A to Neuropilin-1 was actually examined by using the alkaline phosphatase-fused Sema3A (=Sema3A-AP) and Neuropilin-1-expressing COS7 cells. SPF-3059-1 is a compound discovered by the present inventors, which inhibits both collapse and neurite outgrowth inhibition induced by semaphorin 3A (Sema3A). […] Further, in order to elucidate the mechanism of the said inhibition, that is, in order to elucidate whether SPF-3059-1 interacts with Sema3A or with its receptor, the comparison was made by measuring collapse activity between (1) the collapse activity which was observed when a sample, to which SPF-3059-1 and Sema3A were mixed in advance at the concentration raising sufficient inhibitory activity (0.25 μg/ml of SPF-3059-1), was added to the culture solution of dorsal root ganglions and (2) the collapse activity which was observed when Sema3A was added to the above-mentioned culture solution after the addition of SPF-3059-1. The final concentration of SPF-3059-1 (0.05 μg/ml) in the culture solution was the same both for (1) and (2). […] From the above considerations, SPF-3059-1 is thought to act by a mechanism in which the binding of Sema3A to the receptor is inhibited by the direct action of SPF-3059-1 on Sema3A. […]

With `CC(=O)c1c(C)c(C(=O)C2COc3cc(O)c(O)c(C(=O)O)c3C2=O)cc2c(=O)c3c(C(=O)O)c(O)c(O)cc3oc12` (centres unmarked) [SPF-3059-1] the “inhibition of Sema3A collapse activity, Pre-Mix sample” value (Sema3A pre-mixed with 0.25 μg/ml compound) was “Sema3A activity was inhibited; also recorded: inhibition of collapse activity was observed” and the “inhibition of Sema3A collapse activity, compound and Sema3A independently added” value was “inhibitory activity will not be observed; also recorded: Inhibition of collapse activity was not observed”.

— patent US7317038B2, “Nerve regeneration promoters containing semaphorin inhibitor as the active ingredient” (Dainippon Sumitomo Pharma Co., Ltd., priority 2000, dated 2008)
